Data as given in ChEMBL document CHEMBL4507279, “Data for DCP probe BI-9627” (2021).

Tests used:
[1] = target: Atypical kinase COQ8A, mitochondrial (Homo sapiens) (UniProt Q8NI60); conditions: Compound concentration 1000.0 nM
[2] = target: Serine/threonine-protein kinase 33 (Homo sapiens) (UniProt Q9BYT3); conditions: Compound concentration 1000.0 nM
[3] = target: Serine/threonine-protein kinase WNK2 (Homo sapiens) (UniProt Q9Y3S1); conditions: Compound concentration 1000.0 nM
[4] = target: Cyclin-dependent kinase 2 (Homo sapiens) (UniProt P24941); conditions: Compound concentration 1000.0 nM
[5] = target: BMP-2-inducible protein kinase (Homo sapiens) (UniProt Q9NSY1); conditions: Compound concentration 1000.0 nM
[6] = test system: ALK tyrosine kinase receptor (Homo sapiens), Q9UM73 [L1196M]; conditions: Compound concentration 1000.0 nM
[7] = target: Tyrosine-protein kinase Lck (Homo sapiens) (UniProt P06239); conditions: Compound concentration 1000.0 nM
Chain of Tyrosine-protein kinase Lck (Homo sapiens) (P06239 2-509 limits assumed): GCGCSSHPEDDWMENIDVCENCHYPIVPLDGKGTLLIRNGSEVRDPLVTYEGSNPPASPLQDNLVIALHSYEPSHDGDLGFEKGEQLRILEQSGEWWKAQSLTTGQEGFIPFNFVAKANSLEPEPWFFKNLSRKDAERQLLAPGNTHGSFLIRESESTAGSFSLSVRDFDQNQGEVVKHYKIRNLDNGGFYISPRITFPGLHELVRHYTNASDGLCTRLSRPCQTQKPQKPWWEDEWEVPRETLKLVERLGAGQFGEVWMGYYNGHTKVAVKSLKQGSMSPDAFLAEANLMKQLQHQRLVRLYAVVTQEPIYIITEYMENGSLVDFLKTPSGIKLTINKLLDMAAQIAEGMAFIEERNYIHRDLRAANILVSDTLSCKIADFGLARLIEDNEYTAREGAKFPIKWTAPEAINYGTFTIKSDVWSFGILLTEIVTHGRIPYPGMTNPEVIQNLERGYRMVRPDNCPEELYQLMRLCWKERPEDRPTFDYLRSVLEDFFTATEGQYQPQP

[8] = target: Cyclin-dependent kinase 5 (Homo sapiens) (UniProt Q00535); conditions: Compound concentration 1000.0 nM
Chain of Cyclin-dependent kinase 5 (Homo sapiens) (Q00535 whole entry, looked up): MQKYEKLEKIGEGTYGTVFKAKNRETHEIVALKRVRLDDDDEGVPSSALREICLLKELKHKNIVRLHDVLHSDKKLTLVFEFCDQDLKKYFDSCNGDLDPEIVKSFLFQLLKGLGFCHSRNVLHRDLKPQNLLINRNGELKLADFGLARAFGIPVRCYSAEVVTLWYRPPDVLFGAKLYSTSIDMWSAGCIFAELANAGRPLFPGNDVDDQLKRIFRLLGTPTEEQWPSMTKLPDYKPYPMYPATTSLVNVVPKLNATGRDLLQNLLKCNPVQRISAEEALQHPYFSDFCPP

[9] = target: Eukaryotic translation initiation factor 2-alpha kinase 1 (Homo sapiens) (UniProt Q9BQI3); conditions: Compound concentration 1000.0 nM
Chain of Eukaryotic translation initiation factor 2-alpha kinase 1 (Homo sapiens) (Q9BQI3 whole entry): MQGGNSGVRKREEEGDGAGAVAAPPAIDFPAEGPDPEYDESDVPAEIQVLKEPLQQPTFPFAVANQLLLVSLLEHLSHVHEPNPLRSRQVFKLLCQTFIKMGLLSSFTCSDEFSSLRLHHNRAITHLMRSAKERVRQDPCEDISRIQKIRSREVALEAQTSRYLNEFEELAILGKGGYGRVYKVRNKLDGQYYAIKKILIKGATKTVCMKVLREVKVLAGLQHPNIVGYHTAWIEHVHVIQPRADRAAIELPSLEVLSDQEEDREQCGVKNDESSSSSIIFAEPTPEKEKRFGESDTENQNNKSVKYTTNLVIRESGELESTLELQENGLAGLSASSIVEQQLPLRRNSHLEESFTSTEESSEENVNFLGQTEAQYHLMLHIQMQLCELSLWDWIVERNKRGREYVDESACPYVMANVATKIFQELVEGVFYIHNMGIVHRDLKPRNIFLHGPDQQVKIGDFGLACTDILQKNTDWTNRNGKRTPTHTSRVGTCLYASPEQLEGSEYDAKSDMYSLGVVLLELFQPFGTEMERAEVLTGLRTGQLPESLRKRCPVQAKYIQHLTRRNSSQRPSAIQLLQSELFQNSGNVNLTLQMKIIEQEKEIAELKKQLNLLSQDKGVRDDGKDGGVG

[10] = target: Dual specificity tyrosine-phosphorylation-regulated kinase 1B (Homo sapiens) (UniProt Q9Y463); conditions: Compound concentration 1000.0 nM
Chain of Dual specificity tyrosine-phosphorylation-regulated kinase 1B (Homo sapiens) (Q9Y463 whole entry, looked up): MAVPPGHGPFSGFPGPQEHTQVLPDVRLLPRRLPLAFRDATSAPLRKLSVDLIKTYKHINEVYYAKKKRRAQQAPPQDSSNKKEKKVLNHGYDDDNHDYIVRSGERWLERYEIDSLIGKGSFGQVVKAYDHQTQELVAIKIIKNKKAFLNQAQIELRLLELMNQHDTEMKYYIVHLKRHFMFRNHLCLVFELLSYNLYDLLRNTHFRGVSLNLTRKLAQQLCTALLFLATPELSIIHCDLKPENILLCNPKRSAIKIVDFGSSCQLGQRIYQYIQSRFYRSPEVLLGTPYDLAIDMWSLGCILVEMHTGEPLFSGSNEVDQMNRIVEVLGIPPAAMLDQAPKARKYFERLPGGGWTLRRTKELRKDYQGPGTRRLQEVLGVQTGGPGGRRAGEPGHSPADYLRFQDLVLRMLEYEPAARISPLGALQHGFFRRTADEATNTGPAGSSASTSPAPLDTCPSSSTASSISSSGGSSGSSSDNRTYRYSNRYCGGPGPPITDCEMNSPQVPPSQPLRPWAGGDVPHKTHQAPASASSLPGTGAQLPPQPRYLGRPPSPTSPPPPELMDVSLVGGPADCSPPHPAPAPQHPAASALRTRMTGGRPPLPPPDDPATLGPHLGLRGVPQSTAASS

[11] = target: Serine/threonine-protein kinase PAK 5 (Homo sapiens) (UniProt Q9P286); conditions: Compound concentration 1000.0 nM
[12] = test system: Receptor-type tyrosine-protein kinase FLT3 (Homo sapiens), P36888 [K663Q]; conditions: Compound concentration 1000.0 nM
[13] = target: Serine/threonine-protein kinase TBK1 (Homo sapiens) (UniProt Q9UHD2); conditions: Compound concentration 1000.0 nM
[14] = target: Receptor-type tyrosine-protein kinase FLT3 (Homo sapiens) (UniProt P36888); conditions: Compound concentration 1000.0 nM
[15] = target: D(3) dopamine receptor (Homo sapiens) (UniProt P35462); conditions: Compound concentration 10.0 uM
[16] = target: Myotonin-protein kinase (Homo sapiens) (UniProt Q09013); conditions: Compound concentration 1000.0 nM
[17] = target: Protein kinase C iota type (Homo sapiens) (UniProt P41743); conditions: Compound concentration 1000.0 nM
Chain of Protein kinase C iota type (Homo sapiens) (P41743 whole entry): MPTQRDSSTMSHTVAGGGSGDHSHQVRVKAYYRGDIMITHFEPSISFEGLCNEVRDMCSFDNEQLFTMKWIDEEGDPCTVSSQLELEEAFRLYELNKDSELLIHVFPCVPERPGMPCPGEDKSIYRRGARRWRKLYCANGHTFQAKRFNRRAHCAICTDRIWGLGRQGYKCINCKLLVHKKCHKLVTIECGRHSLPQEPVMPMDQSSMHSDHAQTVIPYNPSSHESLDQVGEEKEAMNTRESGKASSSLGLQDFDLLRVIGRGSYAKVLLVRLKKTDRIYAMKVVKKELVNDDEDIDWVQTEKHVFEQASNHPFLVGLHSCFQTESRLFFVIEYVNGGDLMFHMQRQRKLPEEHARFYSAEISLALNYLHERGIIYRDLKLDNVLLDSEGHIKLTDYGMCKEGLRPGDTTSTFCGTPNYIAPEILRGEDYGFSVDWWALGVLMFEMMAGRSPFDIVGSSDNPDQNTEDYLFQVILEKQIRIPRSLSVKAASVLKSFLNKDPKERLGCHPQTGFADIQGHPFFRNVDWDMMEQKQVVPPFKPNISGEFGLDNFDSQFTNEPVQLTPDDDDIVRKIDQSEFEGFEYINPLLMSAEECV

[18] = target: Calcium-dependent protein kinase 1 (Plasmodium falciparum) (UniProt P62344); conditions: Compound concentration 1000.0 nM
Chain of Calcium-dependent protein kinase 1 (Plasmodium falciparum) (P62344 2-524 limits assumed): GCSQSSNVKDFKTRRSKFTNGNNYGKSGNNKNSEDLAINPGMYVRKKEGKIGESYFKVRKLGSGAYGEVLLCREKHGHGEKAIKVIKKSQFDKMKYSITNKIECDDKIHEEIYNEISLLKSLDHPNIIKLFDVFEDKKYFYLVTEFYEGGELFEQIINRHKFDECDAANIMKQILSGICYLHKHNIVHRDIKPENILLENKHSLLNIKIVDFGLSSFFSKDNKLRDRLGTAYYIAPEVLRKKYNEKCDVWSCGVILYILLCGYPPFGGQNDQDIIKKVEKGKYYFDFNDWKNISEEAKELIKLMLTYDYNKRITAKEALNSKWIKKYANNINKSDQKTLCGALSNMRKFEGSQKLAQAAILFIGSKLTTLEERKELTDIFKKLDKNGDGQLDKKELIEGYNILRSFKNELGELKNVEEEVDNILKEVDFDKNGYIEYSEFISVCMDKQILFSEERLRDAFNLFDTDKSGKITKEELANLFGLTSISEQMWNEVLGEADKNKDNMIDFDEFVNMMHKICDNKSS

[19] = target: Serine/threonine-protein kinase TNNI3K (Homo sapiens) (UniProt Q59H18); conditions: Compound concentration 1000.0 nM
Chain of Serine/threonine-protein kinase TNNI3K (Homo sapiens) (Q59H18 whole entry): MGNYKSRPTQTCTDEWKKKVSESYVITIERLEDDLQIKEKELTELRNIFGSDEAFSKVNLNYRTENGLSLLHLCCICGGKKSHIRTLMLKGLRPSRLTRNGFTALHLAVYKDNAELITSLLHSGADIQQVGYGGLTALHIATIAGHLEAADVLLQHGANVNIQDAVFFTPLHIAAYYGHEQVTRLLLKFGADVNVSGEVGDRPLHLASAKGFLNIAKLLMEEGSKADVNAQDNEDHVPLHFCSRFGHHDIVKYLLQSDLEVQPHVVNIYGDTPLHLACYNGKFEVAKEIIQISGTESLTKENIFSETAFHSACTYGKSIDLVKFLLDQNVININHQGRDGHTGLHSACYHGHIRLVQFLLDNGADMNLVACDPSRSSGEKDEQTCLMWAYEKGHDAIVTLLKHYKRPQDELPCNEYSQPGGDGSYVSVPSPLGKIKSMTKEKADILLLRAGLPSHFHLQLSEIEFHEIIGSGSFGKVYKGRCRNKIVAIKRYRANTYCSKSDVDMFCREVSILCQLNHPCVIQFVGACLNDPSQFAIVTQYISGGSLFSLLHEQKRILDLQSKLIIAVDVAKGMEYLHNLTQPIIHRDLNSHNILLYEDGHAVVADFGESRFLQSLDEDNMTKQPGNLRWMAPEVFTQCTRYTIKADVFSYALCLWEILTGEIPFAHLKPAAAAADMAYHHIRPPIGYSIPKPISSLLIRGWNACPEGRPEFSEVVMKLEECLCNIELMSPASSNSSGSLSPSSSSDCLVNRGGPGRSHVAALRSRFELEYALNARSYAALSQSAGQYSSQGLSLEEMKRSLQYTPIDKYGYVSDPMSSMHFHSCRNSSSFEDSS

[20] = target: Sodium- and chloride-dependent GABA transporter 1 (Rattus norvegicus) (UniProt P23978); experiment: GABATRANS/RA Eurofins-Panlabs selectivity data (BI); conditions: Compound concentration 10.0 uM
[21] = target: Glutamate receptor ionotropic, NMDA 2A (Rattus norvegicus) (UniProt Q00959); conditions: Compound concentration 10.0 uM
[22] = target: Glucocorticoid receptor (Homo sapiens) (UniProt P04150); experiment: GLUCOCORTICO Eurofins-Panlabs selectivity data (BI); conditions: Compound concentration 10.0 uM
[23] = target: T1, 5-hydroxytryptamine receptor 3A (Homo sapiens) (UniProt P46098); experiment: 5HT3/HU Eurofins-Panlabs selectivity data (BI); conditions: Compound concentration 10.0 uM
T1 sequence (whole entry): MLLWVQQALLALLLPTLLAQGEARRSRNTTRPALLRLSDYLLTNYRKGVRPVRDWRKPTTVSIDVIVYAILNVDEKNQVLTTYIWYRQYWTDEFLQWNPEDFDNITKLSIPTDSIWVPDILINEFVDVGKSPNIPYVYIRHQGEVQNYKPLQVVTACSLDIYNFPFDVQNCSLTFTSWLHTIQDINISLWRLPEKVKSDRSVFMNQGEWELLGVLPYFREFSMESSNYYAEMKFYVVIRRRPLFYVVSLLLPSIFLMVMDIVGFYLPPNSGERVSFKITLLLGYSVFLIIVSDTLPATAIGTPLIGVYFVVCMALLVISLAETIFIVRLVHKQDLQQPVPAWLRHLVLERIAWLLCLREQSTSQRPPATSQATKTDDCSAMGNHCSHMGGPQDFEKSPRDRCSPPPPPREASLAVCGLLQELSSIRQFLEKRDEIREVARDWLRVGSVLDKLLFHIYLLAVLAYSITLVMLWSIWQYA

[24] = target: Nicotinic acetylcholine receptor alpha-1/beta-1 (Homo sapiens) (UniProt P02708+P11230); experiment: NACH_BS_N/H Eurofins-Panlabs selectivity data (BI); assay type: protein-complex assay; conditions: Compound concentration 10.0 uM
[25] = target: Endothelin receptor type B (Homo sapiens) (UniProt P24530); experiment: ETB/HUM Eurofins-Panlabs selectivity data (BI); conditions: Compound concentration 10.0 uM
[26] = target: Sodium-dependent dopamine transporter (Homo sapiens, UniProt Q01959); experiment: DATRANS/H Eurofins-Panlabs selectivity data (BI); conditions: Compound concentration 10.0 uM
[27] = target: T2, Alpha-1A adrenergic receptor (Homo sapiens) (UniProt P35348); experiment: ALPHA1A/R Eurofins-Panlabs selectivity data (BI); conditions: Rattus norvegicus; Compound concentration 10.0 uM
T2 sequence (whole entry): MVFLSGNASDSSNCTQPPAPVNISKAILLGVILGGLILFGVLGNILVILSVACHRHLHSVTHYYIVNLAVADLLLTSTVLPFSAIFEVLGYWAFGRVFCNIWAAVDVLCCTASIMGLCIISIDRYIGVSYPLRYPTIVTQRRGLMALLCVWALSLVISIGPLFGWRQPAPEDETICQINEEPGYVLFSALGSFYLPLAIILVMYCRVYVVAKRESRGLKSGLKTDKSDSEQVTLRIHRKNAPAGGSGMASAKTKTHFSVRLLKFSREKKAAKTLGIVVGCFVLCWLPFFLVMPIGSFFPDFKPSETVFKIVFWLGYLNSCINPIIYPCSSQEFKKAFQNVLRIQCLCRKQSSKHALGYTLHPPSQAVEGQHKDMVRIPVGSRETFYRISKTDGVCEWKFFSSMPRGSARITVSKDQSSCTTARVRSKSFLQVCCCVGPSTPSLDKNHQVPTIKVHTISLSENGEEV

[28] = target: Kappa-type opioid receptor (Homo sapiens) (UniProt P41145); experiment: KAPPA/HU Eurofins-Panlabs selectivity data (BI); conditions: Compound concentration 10.0 uM
[29] = target: Estrogen receptor (Homo sapiens) (UniProt P03372); experiment: ERALPHA/H Eurofins-Panlabs selectivity data (BI); conditions: Compound concentration 10.0 uM
[30] = target: Sodium-dependent serotonin transporter (Homo sapiens) (UniProt P31645); experiment: 5HTTRANS/HU Eurofins-Panlabs selectivity data (BI); conditions: Compound concentration 10.0 uM
[31] = target: Beta-2 adrenergic receptor (Homo sapiens) (UniProt P07550); conditions: Compound concentration 10.0 uM
[32] = target: Prostaglandin E2 receptor EP4 subtype (Homo sapiens) (UniProt P35408); experiment: EP4/H Eurofins-Panlabs selectivity data (BI); conditions: Compound concentration 10.0 uM

Chain of Serine/threonine-protein kinase 33 (Homo sapiens) (Q9BYT3 whole entry, looked up): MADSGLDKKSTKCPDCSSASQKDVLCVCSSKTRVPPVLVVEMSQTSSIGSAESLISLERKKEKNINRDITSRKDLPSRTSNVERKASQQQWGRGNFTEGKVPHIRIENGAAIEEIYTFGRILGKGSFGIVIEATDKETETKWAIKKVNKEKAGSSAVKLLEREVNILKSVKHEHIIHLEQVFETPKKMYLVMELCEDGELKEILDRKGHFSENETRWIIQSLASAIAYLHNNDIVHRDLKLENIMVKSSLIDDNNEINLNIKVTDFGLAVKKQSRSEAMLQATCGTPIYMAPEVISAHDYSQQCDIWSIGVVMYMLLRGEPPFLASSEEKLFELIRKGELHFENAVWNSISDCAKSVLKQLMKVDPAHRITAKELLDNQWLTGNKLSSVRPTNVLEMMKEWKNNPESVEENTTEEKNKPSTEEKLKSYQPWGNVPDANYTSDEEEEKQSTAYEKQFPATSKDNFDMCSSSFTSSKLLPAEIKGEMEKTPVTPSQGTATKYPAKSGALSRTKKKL
Chain of Atypical kinase COQ8A, mitochondrial (Homo sapiens) (Q8NI60 163-647 limits assumed): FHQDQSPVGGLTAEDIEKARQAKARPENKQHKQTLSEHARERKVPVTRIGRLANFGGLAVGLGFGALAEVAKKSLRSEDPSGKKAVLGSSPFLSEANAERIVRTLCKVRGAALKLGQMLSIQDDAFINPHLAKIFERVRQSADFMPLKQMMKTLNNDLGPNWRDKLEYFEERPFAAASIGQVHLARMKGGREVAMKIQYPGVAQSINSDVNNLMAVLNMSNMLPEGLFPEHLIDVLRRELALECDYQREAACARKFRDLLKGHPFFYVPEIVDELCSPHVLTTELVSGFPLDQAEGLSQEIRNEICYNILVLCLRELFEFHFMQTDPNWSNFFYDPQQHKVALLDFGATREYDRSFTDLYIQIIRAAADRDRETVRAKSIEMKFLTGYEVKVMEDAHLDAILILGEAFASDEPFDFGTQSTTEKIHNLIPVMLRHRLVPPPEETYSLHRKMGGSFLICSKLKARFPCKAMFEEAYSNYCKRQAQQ

CC(=O)N1CCC(c2ccc(C(=O)NC3=NCCN3)cc2C(F)(F)F)CC1 [BI 0054]
inactive: residual activity [1] 95% | residual activity [2] 100% | residual activity [3] 100% | residual activity [4] 100% | residual activity [5] 100% | residual activity [6] 70% | residual activity [7] 100% | residual activity [8] 100% | residual activity [9] 83% | residual activity [11] 87% | residual activity [12] 100% | residual activity [13] 98% | residual activity [14] 100% | inhibition [15] -7.75% | residual activity [16] 100% | residual activity [17] 83% | residual activity [18] 90% | residual activity [19] 98%
active: residual activity [10] 37%

CC(=O)N1CCC(c2ccc(C(=O)NC(=N)N)cc2C(F)(F)F)CC1 [BI 9627]
inactive: residual activity [20] 101% | residual activity [1] 96% | residual activity [21] 96% | residual activity [2] 100% | residual activity [22] 98% | residual activity [3] 98% | residual activity [23] 98% | residual activity [4] 100% | residual activity [5] 96% | residual activity [6] 96% | residual activity [7] 100% | residual activity [8] 87% | residual activity [9] 100% | residual activity [24] 100% | residual activity [25] 114% | residual activity [26] 101% | residual activity [11] 100% | residual activity [27] 86% | residual activity [12] 100% | residual activity [28] 74% | residual activity [29] 106% | residual activity [13] 100% | residual activity [30] 89% | residual activity [14] 100% | residual activity [16] 100% | residual activity [17] 100% | inhibition [31] -9.75% | residual activity [18] 87% | residual activity [32] 99% | residual activity [19] 100%
active: residual activity [10] 45%
